Results reported in patent US20250319107A1, “USE OF CANNABIDIOL AND CLOBAZAM IN THE TREATMENT OF CHILDHOOD-ONSET EPILEPSY SYNDROMES” (GW Research Limited, priority 2021, published 2025).

System: patients with LGS or DS
Assay: Phase 3 randomized controlled trials of CBD versus placebo, adverse reactions in DS and LGS patients
Format: in vivo, human
Details: DS and LGS, 14-week treatment
Source text: Randomized, double-blind, parallel-group, trials of CBD versus placebo were undertaken and the adverse event experienced by the patients were collated and investigated.
In summary patients completed a 1-week screening period and a 4-week baseline period before they were randomized to receive CBD or equivalent volumes of placebo. Randomization was stratified by age.
Patients began a 4-week dose escalation period, titrating up to their assigned dose, before continuing on a stable dose of blinded investigational medicinal product (IMP) for 12 or 14 weeks.
Dose escalation for each patient was subject to the investigator's assessment of safety and tolerability. If a dose became poorly tolerated, the investigator may consider temporarily or permanently reducing the dose for the remainder of the study.
Clinic visits occurred for screening (Day-35), baseline (Day-28), randomization (Day 1) and, on Days 15 and 29 during titration and on Days 43, 57, 71 (telephone) and 85 until the end of treatment (Day 113). Safety telephone calls were completed every two days during titration, one week after the end of titration and, for patients not entering the open label extension (OLE), weekly from Visit 10 to Visit 12.
Safety and tolerability measures that were recorded included: adverse events; clinical laboratory parameters; 12-lead electrocardiogram (ECG); physical examination parameters (including height and weight); vital signs; Columbia-Suicide Severity Rating Scale (C-SSRS; 19+ years) or C-SSRS Children's (6-18 years) score, where applicable; number of inpatient hospitalizations due to epilepsy; abuse liability and effects on menstruation cycles (in females).
Table 1.1 below lists the adverse reactions that were reported in DS and LGS patients treated with CBD during the 14-week treatment period in the Phase 3 controlled trials.

[1] = All active (n = 456, includes 10 patients at 5 mg/kg/day)

In the case of `C=C(C)[C@@H]1CCC(C)=C[C@H]1c1c(O)cc(CCCCC)cc1O` [CBD, cannabidiol], the “Abnormal behavior, adverse reaction incidence” value (“Abnormal behavior” below) (10 mg/kg/day (n = 139)) is reported as 0%, the “Aggression, adverse reaction incidence” value (10 mg/kg/day (n = 139)) is reported as 2% and the “Agitation, adverse reaction incidence” value (10 mg/kg/day (n = 139)) is reported as 0%. For the same compound, the “Alanine aminotransferase increased, adverse reaction incidence” value (“Alanine aminotransferase increased” for short) (10 mg/kg/day (n = 139)) was 4%, the “Aspartate aminotransferase increased, adverse reaction incidence” value (shortened to “Aspartate aminotransferase increased”) (10 mg/kg/day (n = 139)) was 4% and the “Decreased appetite, adverse reaction incidence” value (from here on “Decreased appetite”) (10 mg/kg/day (n = 139)) was 17%. For the same compound, the “Diarrhea, adverse reaction incidence” value (10 mg/kg/day (n = 139)) was 13%, the “Drooling, adverse reaction incidence” value (10 mg/kg/day (n = 139)) was 0% and the “Fatigue, adverse reaction incidence” value (10 mg/kg/day (n = 139)) was 7%. The “Gamma-glutamyl transferase increased, adverse reaction incidence” value (shortened to “Gamma-glutamyl transferase increased”) (10 mg/kg/day (n = 139)) was 4%, the “Insomnia, adverse reaction incidence” value (10 mg/kg/day (n = 139)) was 4% and the “Irritability, adverse reaction incidence” value (10 mg/kg/day (n = 139)) was 7%. For the same compound, the “Lethargy, adverse reaction incidence” value (10 mg/kg/day (n = 139)) was 3%, the “Liver function test increased, adverse reaction incidence” value (from here on “Liver function test increased”) (10 mg/kg/day (n = 139)) was 0% and the “Pneumonia (grouped terms), adverse reaction incidence” value (from here on “Pneumonia (grouped terms)”) (10 mg/kg/day (n = 139)) was 9%. For the same compound, the “Pyrexia, adverse reaction incidence” value (10 mg/kg/day (n = 139)) was 17%, the “Rash, adverse reaction incidence” value (10 mg/kg/day (n = 139)) was 2% and the “Somnolence (grouped: somnolence, sedation), adverse reaction incidence” value (from here on “Somnolence”) (10 mg/kg/day (n = 139)) was 26%. For the same compound, the “Weight decreased, adverse reaction incidence” value (shortened to “Weight decreased”) (10 mg/kg/day (n = 139)) was 1%, the “Abnormal behavior” value (20 mg/kg/day (n = 307)) was 3% and the “Aggression, adverse reaction incidence” value (20 mg/kg/day (n = 307)) was 5%. The “Agitation, adverse reaction incidence” value (20 mg/kg/day (n = 307)) was 1%, the “Alanine aminotransferase increased” value (20 mg/kg/day (n = 307)) was 7% and the “Aspartate aminotransferase increased” value (20 mg/kg/day (n = 307)) was 7%. For the same compound, the “Decreased appetite” value (20 mg/kg/day (n = 307)) was 24%, the “Diarrhea, adverse reaction incidence” value (20 mg/kg/day (n = 307)) was 21% and the “Drooling, adverse reaction incidence” value (20 mg/kg/day (n = 307)) was 3%. The “Fatigue, adverse reaction incidence” value (20 mg/kg/day (n = 307)) was 13%, the “Gamma-glutamyl transferase increased” value (20 mg/kg/day (n = 307)) was 5% and the “Insomnia, adverse reaction incidence” value (20 mg/kg/day (n = 307)) was 3%. The “Irritability, adverse reaction incidence” value (20 mg/kg/day (n = 307)) was 5%, the “Lethargy, adverse reaction incidence” value (20 mg/kg/day (n = 307)) was 6% and the “Liver function test increased” value (20 mg/kg/day (n = 307)) was 3%. For the same compound, the “Pneumonia (grouped terms)” value (20 mg/kg/day (n = 307)) was 5%, the “Pyrexia, adverse reaction incidence” value (20 mg/kg/day (n = 307)) was 15% and the “Rash, adverse reaction incidence” value (20 mg/kg/day (n = 307)) was 5%. The “Somnolence” value (20 mg/kg/day (n = 307)) was 29%, the “Weight decreased” value (20 mg/kg/day (n = 307)) was 4% and the “Abnormal behavior” value [1] was 2%. For the same compound, the “Aggression, adverse reaction incidence” value [1] was 4%, the “Agitation, adverse reaction incidence” value [1] was 1% and the “Alanine aminotransferase increased” value [1] was 6%. The “Aspartate aminotransferase increased” value [1] was 6%, the “Decreased appetite” value [1] was 21% and the “Diarrhea, adverse reaction incidence” value [1] was 18%. The “Drooling, adverse reaction incidence” value [1] was 2%, the “Fatigue, adverse reaction incidence” value [1] was 11% and the “Gamma-glutamyl transferase increased” value [1] was 4%. For the same compound, the “Insomnia, adverse reaction incidence” value [1] was 3%, the “Irritability, adverse reaction incidence” value [1] was 6% and the “Lethargy, adverse reaction incidence” value [1] was 5%. For the same compound, the “Liver function test increased” value [1] was 2%, the “Pneumonia (grouped terms)” value [1] was 6% and the “Pyrexia, adverse reaction incidence” value [1] was 16%. The “Rash, adverse reaction incidence” value [1] was 4%, the “Somnolence” value [1] was 29% and the “Weight decreased” value [1] was 3%.
